These results are taken from ChEMBL document CHEMBL5370565, “Inhibition of Cysteine Proteases via Thiol-Michael Addition Explains the Anti-SARS-CoV-2 and Bioactive Properties of Arteannuin B” (J Nat Prod, 2023).

For this experiment, the system named is SARS-CoV-2. Put plainly: Antiviral activity against SARS-CoV-2 nCoV-2019BetaCoV/Wuhan/WIV04/2019 infected in African green monkey Vero E6 cells assessed as reduction in viral yield preincubated with cells for 1 hrs followed by viral infection for 1 hrs with subsequent replacement of fresh media containing compound and measured 24 hrs post infection by qRT-PCR analysis. The format is functional, organism-based. The settings on record: Severe acute respiratory syndrome coronavirus 2, nCoV-2019BetaCoV/Wuhan/WIV04/2019, Vero C1008.

Usually EC50 stands for the concentration needed to bring the measured effect to its halfway point. Take `C=C1C(=O)O[C@@]23C1CC[C@@H](C)[C@@H]2CC[C@@]1(C)O[C@@H]31` (stereo partly specified): the EC50 is 10.3 µM.
